Experimental findings from US9045524B2, “Selective caspase inhibitors and uses thereof” (NOVAGENESIS FOUNDATION, priority 2009, dated 2015) are described below.

SMILES strings stand for the structures.

Experiment [1] addresses T1, Caspase-9 (Homo sapiens (Human), UniProt P55211). Put plainly: Caspase-9 Inhibitor Drug Screening Kit, fluorometric (AFC liberation). In kind it is biochemical. Particulars: 30-minute incubation at 37° C.; approximations of the average values; read-out: Caspase enzymatic activity, IC50 (uM) Caspase 9.
Target sequence in this assay (P55211 whole entry): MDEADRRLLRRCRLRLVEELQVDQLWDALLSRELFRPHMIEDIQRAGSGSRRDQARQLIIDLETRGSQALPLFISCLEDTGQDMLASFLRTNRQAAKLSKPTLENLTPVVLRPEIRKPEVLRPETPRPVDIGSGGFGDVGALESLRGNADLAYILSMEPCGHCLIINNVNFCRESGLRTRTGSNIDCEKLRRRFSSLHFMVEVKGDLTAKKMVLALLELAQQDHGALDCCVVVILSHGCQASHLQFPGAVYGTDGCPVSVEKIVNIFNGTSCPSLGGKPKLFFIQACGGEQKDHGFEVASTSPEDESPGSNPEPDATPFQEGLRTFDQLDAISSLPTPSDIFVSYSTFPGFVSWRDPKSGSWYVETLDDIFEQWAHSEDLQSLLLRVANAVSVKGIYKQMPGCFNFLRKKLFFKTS
Method: The level of inhibition of caspase-1, -3, -5, -7, -9 activity was determined by comparison of the relative fluorescence intensity in samples with or without the compound.
Experiment [2] addresses T1, Caspase-9. As to the kind of experiment: Fluorometric enzymatic assay, active recombinant Caspase-9. Particulars: read-out: IC50 values (μM) Caspase-9; 10-point titration 0.1 nM to 3.3 μM, 30-minute incubation at 37° C.
Target sequence in this assay (P55211 whole entry, looked up, change not shown): as the sequence (P55211 whole entry) above
Target sequence in this assay (P55211 whole entry, looked up, change not shown): as the sequence (P55211 whole entry) above
Method: Each dilution of the test compounds was tested in duplicates, whereas the DMSO or Z-VAD-FMK controls were tested in triplicates. […] The inhibition efficiency and the IC50 values of the test compounds were then determined by comparing the fluorescence intensity (FI) of the test compounds with that of the DMSO control.
The SoftMax Pro Software™ (v5.2 rev C, Molecular Devices) was used for data analysis. The % Inhibition is calculated by: % Inhibition=[FI(DMSO)−FI(test sample)/FI(DMSO)]×100. The % Inhibition vs. Log(concentration) was plotted, and the curve was fitted using the 5-parameter fit of the software.

Regarding `CC(C)[C@H](NC(=O)[C@@H](NC(=O)[C@H](CC(=O)O)NC(=O)OCc1ccccc1)c1ccccc1)C(=O)N[C@H](/C=C/S(C)(=O)=O)CC(=O)O` [Compound 53, Z-Asp-Phg-Val-Aspmethyl vinyl sulfone], the IC50 (as a rule, the concentration at which inhibition is half-maximal) at Caspase-9 [1] is over 10 µM; on Caspase-9 [2], over 3.33 µM.
